Measurements as given in ChEMBL document CHEMBL4342498, “Design and Discovery of an Orally Efficacious Spiroindolinone-Based Tankyrase Inhibitor for the Treatment of Colon Cancer” (J Med Chem, 2020).
In brackets after ≈: the same amount, converted by molar mass. Activity calls are given as the source filed them. The rule behind the calls is not given here.

Tests used:
COLO 320DM [1] = assay: Antiproliferative activity against human COLO320DM cells assessed as inhibition of cell growth measured after 4 days by CellTiter-Glo assay; type: functional; settings: 96 h
Tankyrase 1/2 [2] = target: T1, Tankyrase 1/2 (Homo sapiens, UniProt Q9H2K2+O95271); settings: hek293
T1 sequence (Q9H2K2 whole entry): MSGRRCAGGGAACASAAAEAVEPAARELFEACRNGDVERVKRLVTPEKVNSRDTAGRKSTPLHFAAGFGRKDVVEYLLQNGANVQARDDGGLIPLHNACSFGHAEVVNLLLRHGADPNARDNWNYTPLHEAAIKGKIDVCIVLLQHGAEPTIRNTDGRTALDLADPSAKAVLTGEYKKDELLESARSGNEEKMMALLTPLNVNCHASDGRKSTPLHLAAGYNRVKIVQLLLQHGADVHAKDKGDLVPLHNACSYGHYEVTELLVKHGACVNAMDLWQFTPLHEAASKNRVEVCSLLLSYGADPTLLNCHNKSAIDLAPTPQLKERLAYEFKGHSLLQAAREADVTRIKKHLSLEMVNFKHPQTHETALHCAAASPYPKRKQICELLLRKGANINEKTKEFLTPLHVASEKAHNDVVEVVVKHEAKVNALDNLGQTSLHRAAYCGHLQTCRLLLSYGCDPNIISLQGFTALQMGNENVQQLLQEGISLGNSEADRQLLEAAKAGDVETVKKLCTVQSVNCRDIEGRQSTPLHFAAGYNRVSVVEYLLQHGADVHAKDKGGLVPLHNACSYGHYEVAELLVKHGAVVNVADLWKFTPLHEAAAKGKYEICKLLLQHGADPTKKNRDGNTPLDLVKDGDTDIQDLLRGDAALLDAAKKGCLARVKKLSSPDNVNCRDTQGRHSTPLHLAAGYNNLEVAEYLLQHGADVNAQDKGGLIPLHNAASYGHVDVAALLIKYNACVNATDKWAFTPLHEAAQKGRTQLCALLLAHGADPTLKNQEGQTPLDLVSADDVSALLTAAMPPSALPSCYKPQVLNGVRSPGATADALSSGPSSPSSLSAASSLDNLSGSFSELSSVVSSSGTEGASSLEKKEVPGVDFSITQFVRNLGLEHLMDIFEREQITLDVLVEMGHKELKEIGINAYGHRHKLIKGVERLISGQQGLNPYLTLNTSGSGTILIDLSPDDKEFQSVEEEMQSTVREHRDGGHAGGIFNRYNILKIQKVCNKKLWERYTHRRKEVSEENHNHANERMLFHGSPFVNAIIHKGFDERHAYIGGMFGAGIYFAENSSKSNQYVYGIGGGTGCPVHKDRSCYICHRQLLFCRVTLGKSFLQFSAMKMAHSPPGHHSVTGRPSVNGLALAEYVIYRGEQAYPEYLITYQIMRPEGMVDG
T1 sequence (O95271 whole entry): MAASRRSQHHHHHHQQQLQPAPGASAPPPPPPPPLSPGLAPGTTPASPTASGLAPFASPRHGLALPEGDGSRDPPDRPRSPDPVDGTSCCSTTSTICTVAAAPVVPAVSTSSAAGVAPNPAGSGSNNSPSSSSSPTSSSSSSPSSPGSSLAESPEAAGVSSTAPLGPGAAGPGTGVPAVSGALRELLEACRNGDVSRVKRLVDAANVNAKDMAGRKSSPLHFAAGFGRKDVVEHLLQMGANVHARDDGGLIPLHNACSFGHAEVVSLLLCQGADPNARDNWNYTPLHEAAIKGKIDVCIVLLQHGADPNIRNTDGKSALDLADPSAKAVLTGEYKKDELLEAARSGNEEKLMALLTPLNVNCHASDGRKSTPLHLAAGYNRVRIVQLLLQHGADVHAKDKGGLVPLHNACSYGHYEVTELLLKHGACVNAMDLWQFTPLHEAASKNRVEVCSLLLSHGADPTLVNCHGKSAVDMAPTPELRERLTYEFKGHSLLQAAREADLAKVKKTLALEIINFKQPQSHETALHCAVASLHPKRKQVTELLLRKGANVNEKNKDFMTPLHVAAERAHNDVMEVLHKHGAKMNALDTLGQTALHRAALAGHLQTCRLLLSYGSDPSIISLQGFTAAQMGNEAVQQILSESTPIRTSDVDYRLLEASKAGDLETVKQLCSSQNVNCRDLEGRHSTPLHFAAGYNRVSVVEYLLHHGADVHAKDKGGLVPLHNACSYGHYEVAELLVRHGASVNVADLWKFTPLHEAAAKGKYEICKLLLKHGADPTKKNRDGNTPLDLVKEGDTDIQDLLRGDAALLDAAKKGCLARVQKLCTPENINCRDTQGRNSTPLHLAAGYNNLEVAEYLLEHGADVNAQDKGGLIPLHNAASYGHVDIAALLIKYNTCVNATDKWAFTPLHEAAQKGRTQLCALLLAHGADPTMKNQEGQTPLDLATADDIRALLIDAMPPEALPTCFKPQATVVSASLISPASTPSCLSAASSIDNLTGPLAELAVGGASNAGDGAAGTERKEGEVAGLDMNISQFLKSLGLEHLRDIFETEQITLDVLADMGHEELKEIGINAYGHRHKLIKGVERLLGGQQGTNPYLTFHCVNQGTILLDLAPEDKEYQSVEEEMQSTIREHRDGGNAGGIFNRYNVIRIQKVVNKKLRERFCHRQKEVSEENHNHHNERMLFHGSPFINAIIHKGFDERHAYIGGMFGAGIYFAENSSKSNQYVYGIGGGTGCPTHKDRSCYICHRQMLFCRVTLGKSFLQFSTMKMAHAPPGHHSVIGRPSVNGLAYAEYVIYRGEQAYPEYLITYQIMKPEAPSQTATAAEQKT
Description: Inhibition of TNKS/TNKS2 (unknown origin) expressed in HEK293 cells assessed as reduction in Wnt-signaling measured after 24 hrs by TCF-luciferase reporter gene assay

MDR1 = assay: Efflux ratio of permeability across basolateral to apical side over apical to basolateral side in MDCK2-MDR1 cells; type: ADME, cell-based, Canis lupus familiaris; settings: dog, MDCK-MDR1
Tankyrase 1/2 [3] = target: T1, Tankyrase 1/2
Description: Inhibition of TNKS/TNKS2 (unknown origin) expressed in human DLD1 cells assessed as reduction in Wnt-signaling measured after 24 hrs by TCF-luciferase reporter gene assay

[4] = Net efflux ratio of permeability across basolateral to apical side over apical to basolateral side in MDCK2-MDR1 cells to MDCK2 cells; type: ADME, cell-based, Canis lupus familiaris; settings: dog, mdck
[5] = Stability in mouse liver microsomes assessed as parent compound remaining at 1 uM measured after 30 mins in presence of NADPH by LC-MS/MS analysis; type: ADME, Microsome; settings: read-out: Stability
[6] = Stability in human liver microsomes assessed as parent compound remaining at 1 uM measured after 30 mins in presence of NADPH by LC-MS/MS analysis; type: ADME, Microsome; settings: read-out: Stability
[7] = Stability in mouse liver microsomes assessed as parent compound remaining at 1 uM measured after 60 mins in presence of NADPH by LC-MS/MS analysis; type: ADME, Microsome; settings: read-out: Stability
[8] = Stability in human liver microsomes assessed as parent compound remaining at 1 uM measured after 60 mins in presence of NADPH by LC-MS/MS analysis; type: ADME, Microsome; settings: read-out: Stability
physchem = settings: phosphate buffered saline, pH 7.4
[9] = Stability in rat liver microsomes assessed as parent compound remaining at 1 uM measured after 60 mins in presence of NADPH by LC-MS/MS analysis; type: ADME, Microsome; settings: read-out: Stability
[10] = Stability in rat liver microsomes assessed as parent compound remaining at 1 uM measured after 30 mins in presence of NADPH by LC-MS/MS analysis; type: ADME, Microsome; settings: read-out: Stability
[11] = target: T2, Poly [ADP-ribose] polymerase tankyrase-2 (Homo sapiens, UniProt Q9H2K2); assay: Inhibition of recombinant human N-terminal TEV cleavage site-fused/FLAG-poly his-tagged TNKS2 ARC5-SAM-PARP domain (613 to 1166 residues) expressed in Escherichia coli assessed as reduction in auto-PARylation preincubated for 10 mins followed by biotinylated-NAD+ addition and measured after 45 mins by ELISA
T2 sequence (Q9H2K2 whole entry): T1 sequence (Q9H2K2 whole entry)

[12] = Protein binding in mouse plasma assessed as unbound fraction at 1 uM measured after 24 hrs by LC-MS/MS analysis; type: ADME, cell-free
[13] = target: T3, Poly [ADP-ribose] polymerase tankyrase-1 (Homo sapiens, UniProt O95271)
T3 sequence (O95271 whole entry): T1 sequence (O95271 whole entry)
Description: Inhibition of recombinant human N-terminal TEV cleavage site-fused/FLAG-poly his-tagged TNKS SAM-PARP domain (1024 to 1327 residues) expressed in Escherichia coli assessed as reduction in auto-PARylation preincubated for 10 mins followed by biotinylated-NAD+ addition and measured after 45 mins by ELISA

[14] = Efflux ratio of permeability across basolateral to apical side over apical to basolateral side in MDCK2 cells; type: ADME, cell-based, Canis lupus familiaris, MDCK-II; settings: dog, mdck
[15] = Permeability of the compound measured after 4 hrs by PAMPA; type: ADME; settings: read-out: permeability
[16] = Protein binding in human plasma assessed as unbound fraction at 1 uM measured after 24 hrs by LC-MS/MS analysis; type: ADME, cell-free
COLO 320DM [17] = assay: Antiproliferative activity against human COLO320DM cells assessed inhibition of cell growth measured after 5 days by MTT assay; type: functional; settings: 120 h
[18] = Dose normalized initial plasma concentration in Sprague-Dawley rat at 1 mg/kg, iv; type: ADME, organism-based; settings: in vivo
[19] = Dose normalized AUC (infinity) in Sprague-Dawley rat at 1 mg/kg, iv; type: ADME, organism-based; settings: in vivo
RKO = assay: Antiproliferative activity against human RKO cells assessed inhibition of cell growth measured after 5 days by MTT assay; type: functional; settings: 120 h
[20] = target: Poly [ADP-ribose] polymerase 1 (Homo sapiens, UniProt P09874); assay: Inhibition of recombinant human PARP1 expressed in Escherichia coli assessed as reduction in auto-PARylation using histone as substrate measured after 45 mins in presence of biotinylated-NAD+ by ELISA
COLO 320DM [21] = assay: Antitumor activity against human COLO320DM cells xenografted in Prkdc-NOD-SCID CB17 mouse assessed as tumor growth inhibition at 300 mg/kg, po administered twice daily for 5 days followed by 2 days interval for 2 cycles relative to control; type: functional; settings: read-out: TGI
[22] = target: T4, Tankyrase 1/2 (Homo sapiens) (UniProt Q9H2K2+O95271); assay: Inhibition of TNKS/TNKS2-mediated WNT/beta-catenin signaling pathway in human COLO320DM cells assessed as upregulation of AXIN2 expression at 0.1 uM measured after 16 hrs by Western blot analysis relative to control; type: cell-based
COLO 320DM [23] = assay: Antitumor activity against human COLO320DM cells xenografted in Prkdc-NOD-SCID CB17 mouse assessed as tumor growth inhibition at 150 mg/kg, ip administered twice daily for 5 days followed by 2 days interval for 2 cycles relative to control; type: functional; settings: read-out: TGI
[24] = target: T4, Tankyrase 1/2 (Homo sapiens); assay: Inhibition of TNKS/TNKS2-mediated WNT/beta-catenin signaling pathway in human COLO320DM cells assessed as upregulation of AXIN2 expression at 0.33 uM measured after 16 hrs by Western blot analysis; type: cell-based
[25] = target: T4, Tankyrase 1/2 (Homo sapiens); assay: Inhibition of TNKS/TNKS2-mediated WNT/beta-catenin signaling pathway in human COLO320DM cells assessed as reduction in beta-catenin expression at 0.33 uM measured after 16 hrs by Western blot analysis; type: cell-based

Sequence of Poly [ADP-ribose] polymerase 1 (P09874 whole entry): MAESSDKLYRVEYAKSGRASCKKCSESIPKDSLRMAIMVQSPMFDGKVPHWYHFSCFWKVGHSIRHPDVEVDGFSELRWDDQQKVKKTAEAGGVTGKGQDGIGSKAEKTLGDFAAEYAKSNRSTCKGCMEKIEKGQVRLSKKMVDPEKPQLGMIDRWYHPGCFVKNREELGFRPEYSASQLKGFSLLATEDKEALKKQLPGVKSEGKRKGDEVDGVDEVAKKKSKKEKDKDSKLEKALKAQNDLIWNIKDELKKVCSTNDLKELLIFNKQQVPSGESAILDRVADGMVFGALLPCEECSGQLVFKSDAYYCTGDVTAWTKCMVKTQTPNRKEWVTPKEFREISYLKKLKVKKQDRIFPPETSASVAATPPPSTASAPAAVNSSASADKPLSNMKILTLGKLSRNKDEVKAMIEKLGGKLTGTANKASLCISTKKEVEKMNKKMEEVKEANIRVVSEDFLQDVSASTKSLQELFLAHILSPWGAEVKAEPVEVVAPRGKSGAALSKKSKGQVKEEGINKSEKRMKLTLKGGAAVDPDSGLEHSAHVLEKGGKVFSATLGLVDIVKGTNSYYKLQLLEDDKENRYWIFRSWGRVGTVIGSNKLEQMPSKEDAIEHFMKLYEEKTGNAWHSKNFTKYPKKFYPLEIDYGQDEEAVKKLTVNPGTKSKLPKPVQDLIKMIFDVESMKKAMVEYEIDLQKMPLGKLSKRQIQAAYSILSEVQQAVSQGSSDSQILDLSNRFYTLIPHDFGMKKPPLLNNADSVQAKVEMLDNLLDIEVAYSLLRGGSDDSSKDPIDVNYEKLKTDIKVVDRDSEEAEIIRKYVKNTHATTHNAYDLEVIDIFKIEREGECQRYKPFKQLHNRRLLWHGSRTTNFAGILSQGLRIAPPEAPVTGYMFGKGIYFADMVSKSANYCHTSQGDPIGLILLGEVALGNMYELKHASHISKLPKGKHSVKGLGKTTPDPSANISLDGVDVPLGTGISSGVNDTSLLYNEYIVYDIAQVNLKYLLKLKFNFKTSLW

GI50 (COLO 320DM [1]) [nM]	IC50 (Tankyrase 1/2 [2]) [nM]	efflux ratio (MDR1)	IC50 (Tankyrase 1/2 [3]) [nM]	Ratio [4]	remaining at 0.5 h, 1 µM [5] [%]	remaining at 0.5 h, 1 µM [6] [%]	remaining at 1 h, 1 µM [7] [%]	remaining at 1 h, 1 µM [8] [%]	solubility at 1 h, 200 µM (physchem) [µg/mL]	remaining at 1 h, 1 µM [9] [%]	remaining at 0.5 h, 1 µM [10] [%]	IC50 [11] [nM]	fraction unbound at 24 h, 1 µM [12]	IC50 [13] [nM]	efflux ratio [14]	Papp at 4 h [15] [×10⁻⁶ cm/s]	fraction unbound at 24 h, 1 µM [16]	GI50 (COLO 320DM [17]) [nM]	C0/dose [18] [µM]	Compound	also measured
300	507	0.3	1877	1	–	–	93.3	97.6	98.4 (≈ 209 µM)	–	–	9.9	–	4.2	0.3	–	–	–	–	CN1CCCc2c1nc(N1CCC3(CC1)C(=O)N(C)c1cc(OCC(=O)O)cc(F)c13)[nH]c2=O	inhibition [24]: inactive; inhibition [25]: inactive
250	2.7	–	7	–	0.3	7.4	0.2	1.4	40.2 (≈ 93.2 µM)	0.2	0.4	21.4	0.002	13.6	–	3.3	0.005	–	–	CN1CCCc2c1nc(N1CCC3(CC1)CN(CCO)c1cc(F)cc(F)c13)[nH]c2=O	–

The remaining lines, values behind:

Compound	GI50 (COLO 320DM [1]) [nM]	IC50 (Tankyrase 1/2 [2]) [nM]	efflux ratio (MDR1)	IC50 (Tankyrase 1/2 [3]) [nM]	Ratio [4]	remaining at 0.5 h, 1 µM [5] [%]	remaining at 0.5 h, 1 µM [6] [%]	remaining at 1 h, 1 µM [7] [%]	remaining at 1 h, 1 µM [8] [%]	solubility at 1 h, 200 µM (physchem) [µg/mL]	remaining at 1 h, 1 µM [9] [%]	remaining at 0.5 h, 1 µM [10] [%]	IC50 [11] [nM]	fraction unbound at 24 h, 1 µM [12]	IC50 [13] [nM]	efflux ratio [14]	Papp at 4 h [15] [×10⁻⁶ cm/s]	fraction unbound at 24 h, 1 µM [16]	GI50 (COLO 320DM [17]) [nM]	C0/dose [18] [µM]	also measured
CN1CCCc2c1nc(N1CCC3(CC1)C(=O)N(CCO)c1cc(F)cc(F)c13)[nH]c2=O	250	1.1	24.6	3.9	3.8	21.2	21	2 to 8.5	6.3	82.9 (≈ 186 µM)	0.5	2	13.5	0.083	7.5	6.4	3	0.022	–	–	–
CS(=O)(=O)c1ccc(-c2nnc(/C=C/c3nnc(-c4ccc(C#N)cc4)o3)n2-c2ccccc2Cl)nc1	1500	–	–	–	–	–	–	95.8	100	–	–	–	–	0.035	–	–	–	0.028	430	1.54	AUC/dose [19]: 0.79 µmol·h/L; GI50 (RKO): 8900 nM
O=c1[nH]c(N2CCC3(CC2)CN(CCO)c2cc(F)cc(F)c23)nc2c1CCCC2	1630	12.1	–	77.6	–	–	–	3.2 to 18.3	2.2 to 5.9	–	3.2	12.8	–	0.004 to 0.015	–	–	2	0.004 to 0.015	450	9.84	IC50 [20]: > 100000 nM; inhibition in vivo at 300 mg/kg (COLO 320DM [21]): 51.9%; fold change (FC) [22]: 4.42; AUC/dose [19]: 4.42 µmol·h/L; GI50 (RKO): > 10000 nM; inhibition in vivo at 150 mg/kg (COLO 320DM [23]): 47.2%
